Here are results for 3 molecules from ChEMBL document CHEMBL1137041, “Novel epicatechin derivatives with antioxidant activity modulate interleukin-1beta release in lipopolysaccharide-stimulated human blood” (Bioorg Med Chem Lett, 2004).

SMILES strings stand for the structures.

A short description of the experiment: In vitro antioxidant effect by the inhibition of AAPH-induced lysis of human red blood cells (RBC). Format: functional.

One may read the IC50 as the concentration that inhibits the measured activity by half. The low end stands for greater potency, the high end for weaker potency. `NCCS[C@H]1c2c(O)cc(O)cc2O[C@H](c2ccc(O)c(O)c2)[C@@H]1O`: the half-inhibitory concentration (IC50) was 89.4 µM.
Then `N[C@@H](CS[C@H]1c2c(O)cc(O)cc2O[C@H](c2ccc(O)c(O)c2)[C@@H]1O)C(=O)O`, with 74.9 µM; and `Oc1cc(O)c2c(c1)O[C@H](c1ccc(O)c(O)c1)[C@H](O)C2` [(-)-EPICATECHIN], with 120 µM.
